Usually melting point stands for the temperature of the solid-liquid transition. For the compound `N#CCN1C2CCC1CC(OC(c1ccccc1)c1ccccc1)C2` (stereo not given), the melting point lay in the range of 94 to 97 °C.
Turning to `COc1ccc(C23CCCC2(c2ccc(OC)cc2)C3)cc1` (stereo not given), the melting point fell in the range of 92 to 93 °C.
As to `O=C(O)CCc1oc(N2CCCCC2)nc1-c1ccc(Cl)cc1`, the melting point lay in the range of 185 to 186 °C.
`COc1ccc(C(=O)Nc2ccccc2)c(CC2CCCCN2)c1` (stereo not given) showed a melting point of 108 to 109 °C.
As to `Cc1ccc(-n2nc(C(C)(C)C)cc2NC(=O)Nc2ccc(OCCCc3ccncc3)c3ccccc23)cc1`, the melting point fell in the range of 205 to 207 °C.
The compound `Cc1cc(N)c([N+](=O)[O-])cc1OS(C)(=O)=O` displayed a melting point of 128 °C.
`CCCCCCCCCCCCc1nnn(C(C(=O)Nc2c(OC)cc(OC)cc2OC)C(C)C)n1` (stereo not given) displayed a melting point of 135 to 137 °C.
For `CCCCCC1COc2cc(CCC3=Cc4cc(F)cc(F)c4OC3)c(F)cc2C1` (stereo not given), the melting point was 84 °C.
Under `CCOC(=O)C1=C(C)NN=C(c2ccccc2)C1c1ccccc1` (stereo not given) stands 130 °C; under `CN=C1SC(=NOC(=O)NC)C(C)(C)S1`, 68 to 70 °C; under `C=CCC1COC(CC)(CC(=O)O)c2[nH]c3c(CC)cccc3c21` (stereo not given), 96 to 97 °C.
`Cc1ccccc1C(=NC(=Nc1ccccc1)N1CCC(=O)CC1)Nc1ccc(F)cc1` yielded a melting point of 234 to 235 °C.
The compound `O=[N+]([O-])c1cn2c(n1)O[C@@H](COc1ccc(N3CCC(Nc4ccc(OCc5ccc(OC(F)(F)F)cc5)cc4)CC3)cc1)CC2` displayed a melting point of 227 to 229 °C.
Consider `CCOC(=O)C1=C(N2CCCC2)N=C(C)C(C(=O)OCC)C1c1cccc2ccccc12` (stereo not given), for which the melting point is 121 °C.
Turning to `COC(=O)CN(CC(=O)OC)c1cc(O)cc(O)c1`, the melting point lay in the range of 200 to 202 °C.
On to `CC(C)C(C)(C#N)N1C(=O)c2ccc3c(ccn3C)c2C1=O` (stereo not given), for which the melting point was in the range of 123 to 128 °C.
The compound `CCCCCCCCCCCCNC(=O)N1c2ccccc2C(C)CC1(C)C` (stereo not given) displayed a melting point of 48 to 50 °C.
In turn, `CC1=NN(c2ccc(C(=O)O)cc2)C(=O)C1Cc1ccc(-c2cc(C)c(C)cc2[N+](=O)[O-])o1` (stereo not given) returned a melting point of 160 to 163 °C.
Turning to `CC1(C)CON(Cc2c(F)cccc2Cl)C1=O`, the melting point lay within 49 to 51 °C.
On to `CC(Oc1ccc(Nc2cnc3cc(Cl)ccc3c2)cc1)C(=O)O` (stereo not given), for which the melting point was determined as 150 °C.
The compound `O=C1CCC(c2ccc(-c3cccnc3)cc2)=NN1` showed a melting point of 225 to 226 °C.
For `CC(C)CCNC(=O)c1ccccc1-c1ccccc1CN1C(=O)c2ccccc2C1=O`, the melting point is 169 °C.
`Nc1cccc(Cn2c(-c3ccc(Nc4cncnc4)cc3)ccc2-c2ccccc2Cl)n1` displayed a melting point of 88 to 90 °C.
Under `Cc1cc(N2C(=O)N(CCCCCN3C(=O)N(c4ccc(C#N)c(C)c4)C(=O)C3(C)C)C(C)(C)C2=O)ccc1C#N` stands 148 to 149 °C; under `O=C1c2ccccc2S(=O)(=O)c2c1cccc2-c1nnn[nH]1`, 271 °C.
The compound `COc1cccc(CNC(=O)c2nc3scc(C(=O)NCc4ccc(C(=O)O)cc4)c3c(=O)[nH]2)c1` returned a melting point of 254 to 255 °C.
Under `CCN(CCCCc1c[nH]c2ccc(F)cc12)C1COc2c(F)ccc(C(N)=O)c2C1` (stereo not given) stands 110 °C.
Consider `CCCNC(=O)Nc1ccccc1C(=O)OCC`, for which the melting point lay within 98 to 99 °C.
Then `O=C(O)Cc1cccc2c(-c3ccc(Cl)cc3)onc12`, with 200 to 202 °C.
In turn, `O=C(O)COc1c(Cl)cc2c(-c3ccccc3F)noc2c1Cl` gave a melting point of 160 to 170 °C.
For `CCN1C(C)CN(CC(=O)NC2(c3cc4ccccc4o3)C(=O)Nc3cc(Cl)cc(Cl)c32)CC1C` (single isomer, unassigned; (+)), the melting point lay within 157 to 160 °C.
The compound `NC(=O)N(O)Cc1sccc1Br` gave a melting point of 138 to 140 °C.
Then `CCOC(=O)C1=C(C)NC(C)=C(C(=O)OCC)C1c1ccccc1/C=C/C(=O)OC1CCCCC1`, with 175 to 177 °C; and `Cc1nc(C(C)C)nc(C)c1N1CCCn2c1nc1c(Cl)ccc(C(OC(F)F)C(F)(F)F)c12` (stereo not given), with 204 to 206 °C; and `Nc1cc(CN2CCC2)cc(C(F)(F)F)c1`, with 60 to 61 °C.
`COc1ccc(C(=O)C(CCC(=O)c2ccc(F)cc2)c2ccc(OC)cc2)cc1` (stereo not given) came in with a melting point of 71 to 74 °C.
Under `Cc1ccc(Oc2c(C)c(NC(=O)CC(C)(C)C)c(C)c3c2OC(C)(C)C3)cc1` stands 182 to 184 °C; under `Cc1oc(-c2ccc(S(C)(=O)=O)cc2)c(Oc2ccc(Cl)cc2)c(=O)c1Cl`, 274 °C; under `COc1ccc(Cc2nc3c(c4c2[nH]c2ccccc24)CCC(C)(C)C3)cc1`, 158 °C.
As to `Clc1ncc(OC[C@@H]2CCCN2)cc1-c1ccccc1`, the melting point is 75 to 80 °C.
In turn, `CC(=O)Nc1c(Cl)cnn1-c1c(F)c(F)c(C(F)(F)F)c(F)c1F` registered a melting point of 45 to 47 °C.
With `Cc1c(Br)c(=O)n(-c2cc(C(=O)OC(C)C)c(Cl)cc2F)c(=O)n1C`, the melting point lay in the range of 127 to 129 °C.
Then `CC(CCC(O)C(C)(C)O)C1CCC2C3CC=C4CC(O)CC(O)C4(C)C3CCC12C` (stereo not given), with 198 to 200 °C; and `CC(C)(C)OC(=O)Nc1cc(OCc2ccccc2)c(OCc2ccccc2)cn1`, with 163 °C.
The compound `Oc1ccc2c(c1)nc(NC1CCN(CCNc3ncccn3)CC1)n2Cc1ccc(F)cc1` showed a melting point of 194 °C.
Then `CC(=O)Nc1c(C)c2c(c(C)c1N(C)C)OC(C)(C)C2`, with 142 to 143 °C; and `COc1ccc(C(=O)Nc2nnn[nH]2)c(OC(C)C)c1`, with 212 to 213 °C; and `COc1c(N2CC(N)C2)c(F)cc2c(=O)c(C(=O)O)cn(-c3cc(N)c(F)cc3F)c12`, with greater than 290 °C.
For the compound `Cn1cncc1C(N)(c1ccc(Cl)cc1)c1ccc2c(c1)c(CCc1cccc(Cl)c1)cc(=O)n2C` (stereo not given), the melting point was 165 °C.
`Cc1cc2c(c3c1sc1ccc(O)cc13)C(=O)N(CCN(C)C)C2=O` displayed a melting point of 249 to 254 °C.
For the compound `CC(C)(C)C(=O)c1c[nH]c2ncc(N3Cc4ccccc4C3=O)nc12`, the melting point fell in the range of 287 to 289 °C.
Under `Cc1c(SC(=S)N(C)C)sn(-c2ccccc2)c1=O` stands 158 to 160 °C.
`CN(C)CCNC(=O)c1ccccc1-c1nnc(CSCCOc2ccccc2)o1` yielded a melting point of 80 to 85 °C.
As for `CCOC(=O)N1CCc2cc(OC)c(OC)cc2C(Oc2ccc(C(F)(F)F)cc2)C1` (stereo not given), the melting point lay within 130 to 131 °C.
`CC(C)C(CCCCCCCC(=O)O)NCc1ccc(F)cc1` (stereo not given) yielded a melting point of 78 to 82 °C.
Turning to `COC(=O)C(C)Oc1ccc(Oc2ccc3ccccc3n2)cc1` (stereo not given), the melting point is 95 to 100 °C.
Then `CCN(CC)CCOc1cccc2c1c1cc(F)ccc1n2Cc1ccc(F)cc1`, with 75 to 76 °C; and `N#Cc1ccc(-c2cn(-c3ccc(C#N)cc3)c(C(O)c3ccccc3)n2)cc1` (stereo not given), with 217 to 222 °C; and `Cc1oc(-c2ccccc2)nc1CCOc1ccc(C=O)c2ccccc12`, with 130 to 133 °C.
As for `O=C(NCCOc1ccc(CC(Oc2ccccc2)C(=O)O)cc1Cl)c1ccc(-c2ccccn2)cc1` (stereo not given), the melting point was in the range of 59 to 61 °C.
In turn, `CC1(C)CC(OC(=O)CCCCCCCCC(=O)OC2CC(C)(C)N(O)C(C)(C)C2)CC(C)(C)N1O` came in with a melting point of 101 °C.
`CCCCn1c(CC)ccc1Cc1cccc(NC(N)=O)c1` came in with a melting point of 103 to 106 °C.
`Fc1cccc(Cl)c1[C@@H]1C[C@H](c2ccc(Cl)cc2)Nc2ncnn21` (relative stereo): the melting point was in the range of 227 to 228 °C.
For `CCCN(CCC)c1c(CC)nn2c(-c3ccc(N(C)C)cc3Cl)cccc12`, the melting point lay in the range of 133 to 134 °C.
Under `CC1SC(=O)NN=C1c1ccc2c(c1)C(=NNc1ccc(C(C)(C)C)cc1)C(=O)N2` (stereo not given) stands 299 °C; under `CN(C)C(=O)C(=O)c1c(Cl)n(C)c2ccc(Cl)cc12`, 205 to 206 °C; under `CC(C)(C)OC(=O)C(Nc1ccccc1)c1ccccc1Cl` (racemic), 74 °C.
Compound `CCc1ccc2c(c1)C(c1ccccc1F)=NCC1CN=C(C)N21` (stereo not given) yielded a melting point of 152 to 154 °C.
Turning to `Clc1cc(Cl)nc(N2CCSCC2)n1`, the melting point lay in the range of 79.5 to 81.5 °C.
In turn, `COc1ccc2c(c1)C(O)=C(C(=O)Nc1cncc(Cl)n1)N(C)S2(=O)=O` showed a melting point of 289 to 291 °C.
Under `FC(F)(F)c1ccc2ncc(Br)cc2c1` stands 79 °C.
Then `O=c1c2c(oc3ncccc13)-c1ccccc1CCC2`, with 186 to 190 °C.
Under `O=c1c(Cl)c(S(=O)(=O)Cc2ccccc2)cnn1-c1ccccc1` stands 154 to 156 °C; under `CCCCCCCCCCCCCCCCNc1ccc(C(=O)OCC(O)CO)cc1` (stereo not given), 112 °C.
Consider `Nc1ccc(CCCc2ccc(Nc3ccccc3C(=O)O)cc2)cc1`, for which the melting point lay within 110 to 112 °C.
Take `Cc1cn(C)c2c1N(C(=O)CCN1CCN(C)CC1)c1ccccc1NC2=O`: the melting point is 187 °C.
Take `COC(=O)Cn1c(C(=O)Nc2nc(-c3cc(OC)c(C)cc3OC)c(CCC3CCCCC3)s2)cc2cc(OC)ccc21`: the melting point lay in the range of 173 to 175 °C.
`CCCCCCCCCc1c(O)nc(-c2ccc(-c3ccc(CCCCC)cc3F)cc2)nc1O`: the melting point was 51 °C.
Then `CNc1nc(-c2ccc(SC)cc2)n(-c2ccc(C)cc2)c(=O)c1C#N`, with 268 to 271 °C; and `CC(=O)OC(OC(C)=O)c1cccc(C(OC(C)=O)OC(C)=O)c1`, with 110 to 130 °C; and `Cc1nc(N2CCc3ccccc3CC2)c(C#N)c(=O)[nH]1`, with greater than 200 °C.
`Cn1nc(-c2ncc(Cl)cc2F)c(N)c1OC(F)F` yielded a melting point of 92 to 94 °C.
Under `O=c1c(O)nc2cccnc2n1-c1ccc(Cl)cc1` stands greater than 300 °C; under `O=C1CC(=Cc2c[nH]c3ccccc23)C(=O)N1Cc1cc(C(F)(F)F)cc(C(F)(F)F)c1`, 68 to 69 °C.
As for `Cc1cc(C)cc(COC(=O)C(Cc2c[nH]c3ccccc23)NS(C)(=O)=O)c1` (stereo not given), the melting point was in the range of 96 to 97 °C.

(Values after a melting point compilation (Tetko et al.; mined from patent text by program, amines drawn as free bases though some values may be those of a salt).)
